According to PMC10254030, “Photoactivatable Heptamethine-Based Carbonic Anhydrase Inhibitors Leading to New Anti-Antibacterial Agents” (International Journal of Molecular Sciences, 2023):
Where two headings read alike, the source gives them in different places.

Columns and labels:
E. coli β = target: T1, E. coli β (Escherichia coli, UniProt P61517); test: stopped-flow CO2 hydrase assay, E. coli β; assay type: biochemical; conditions: pH 8.4, mean from 3 assays
T1 construct: made in house
Method: (§1) The CA isoforms belong to different classes of CA enzymes characterized by different kinetic and structural features to assess isoform selectivity.
An Applied Photophysics stopped-flow instrument was used to assay CA-catalyzed CO2 hydration activity. Phenol red (at a concentration of 0.2 mM) was used as an indicator, working at the absorbance maximum of 557 nm, with 20 mM Hepes (pH 7.4 for α-class and pH 8.4 for β- and γ-classes) as a buffer and 20 mM Na2SO4 (to maintain constant the ionic strength), following the initial rates of the CA-catalyzed CO2 hydration reaction for a period of 10–100 s. The CO2 concentrations ranged from 1.7 to 17 mM for the determination of the kinetic parameters and inhibition constants. Enzyme concentrations ranged between 5 and 12 nM. For each inhibitor, at least six traces of the initial 5–10% of the reaction were used to determine the initial velocity. The uncatalyzed rates were determined in the same manner and subtracted from the total observed rates. Stock solutions of the inhibitor (0.1 mM) were prepared in distilled–deionized water, and dilutions up to 0.01 nM were done thereafter with the assay buffer. Inhibitor and enzyme solutions were preincubated together for 15 min at room temperature prior to the assay to allow for the formation of the E–I complex. The inhibition constants were obtained by non-linear least-squares methods using PRISM 3 and the Cheng–Prusoff equation as reported earlier and represent the mean from at least three different determinations. All CA isoforms were recombinant proteins obtained in house, as reported earlier.

human red blood cells = test: hemolysis assay; assay type: cell-based; conditions: 30 min 37 °C; for hemolysis activity, cytotoxicity to human red blood cells: 0.5–150 µg/mL, compared with 0.01% Tween 20
Method: Blood collected at CHU Nancy was washed three times with PBS, and 10^7 cells/mL were incubated for 30 min at 37 °C with the newly synthesized compounds. The derivatives were previously diluted to the range from 0.5 to 75/150 μg/mL with PBS. As a positive control, cells were resuspended with 0.01% polysorbate 20 (Tween 20). Tween 20 has often been used as a reference compound for cell lysis. Upon incubation, the samples were centrifuged for 5 min at 800× g, and the supernatant was collected for optical density reading at 540 nm.

hCA II = target: T2, hCA II (Homo sapiens, UniProt P00918); test: stopped-flow CO2 hydrase assay, hCA II; assay type: biochemical; conditions: pH 7.4, mean from 3 assays
T2 construct: made in house
Method: as §1
(§2) An Applied Photophysics stopped-flow instrument was used to assay CA-catalyzed CO2 hydration activity. […] The uncatalyzed rates were determined in the same manner and subtracted from the total observed rates. Stock solutions of the inhibitor (0.1 mM) were prepared in distilled–deionized water, and dilutions up to 0.01 nM were done thereafter with the assay buffer. Inhibitor and enzyme solutions were preincubated together for 15 min at room temperature prior to the assay to allow for the formation of the E–I complex. The inhibition constants were obtained by non-linear least-squares methods using PRISM 3 and the Cheng–Prusoff equation as reported earlier and represent the mean from at least three different determinations. All CA isoforms were recombinant proteins obtained in house, as reported earlier.

S. aureus = test: MIC and MBC test (NF EN ISO 20776-1), S. aureus; assay type: cell-based, Staphylococcus aureus; conditions: for MIC: Staphylococcus aureus, ATCC29213, light or radiation study; for MIC / MIC S. aureus: ATCC 29213, without irradiation; for MBC S. aureus: bacteriostatic or bactericidal effect, tested up to 8 × MIC
Method: (§3) Derivatives 2a–f were dissolved in DMSO and further diluted with distilled water to the required final concentration. The microorganisms (E. faecalis, S. aureus, and S. epidermidis reported in Table 4) were cultured overnight at 35 °C in Mueller Hinton Broth 2, Cation-Adjusted (BD, BD 212322, New York, NY, USA) and adjusted to 0.5 McFarland, according to standardized guidelines NF EN ISO 20776-1 [23]. The minimal inhibitory concentration (MIC) test was performed according to the standardized guidelines NF EN ISO 20776-1 [23]. Once the MIC was obtained, the minimal bactericidal concentration (MBC) test was performed.

S. epidermidis [1] = test: photoactivity assay, irradiation with 652 nm laser; assay type: cell-based, Staphylococcus epidermidis; conditions: 652 nm laser 47 min, 30 J/cm2, 2c and 2d at 64 μg/mL, others at MIC
Method: Upon incubation of 1.5–2 h with the products, the samples were irradiated for 47 min with a 652 nm laser (to obtain 1.70 W, 30 J/cm^2). Upon irradiation, the cells were plated and incubated overnight at 35 °C on Mueller Hinton Agar (BD, 225250, New York, NY, USA).

S. epidermidis [2] = test: MIC and MBC test (NF EN ISO 20776-1), S. epidermidis; assay type: cell-based, Staphylococcus epidermidis; conditions: for MIC: Staphylococcus epidermidis, ATCC14990, light or radiation study; for MIC / MIC S. epidermidis: ATCC 14990, without irradiation
Method: as §3

E. coli γ = E. coli γ (Escherichia coli, UniProt P0A9W9); assay type: biochemical; conditions: stopped-flow CO2 hydrase assay, pH 8.4, mean from 3 assays
Method: as §1, §2

E. faecalis = test: MIC and MBC test (NF EN ISO 20776-1), E. faecalis; assay type: cell-based, Enterococcus faecalis; conditions: for MIC: Enterococcus faecalis; for MBC E. faecalis: bacteriostatic or bactericidal effect, tested up to 8 × MIC
Method: as §3

MRC-5 cells = test: cytotoxicity, MTT assay; assay type: cell-based, human; conditions: for IC50: MRC5, cytotoxicity, human lung fibroblasts, 24 h, MTT
Method: The cytotoxicity of the products was tested on MRC-5 cells (lung fibroblasts, ATCC CCL-171) with a seeding concentration of 10,000 cells/well. The products were diluted with a 2% FSC MEM medium (Sigma, M4655, Missouri, MO, USA) to concentrations ranging from 1 to 256 μg/mL and incubated with 80% confluent cells for 24 h. The following day, a 3-[4,5-dimethylthiazol-2-yl]-2,5-diphenyl tetrazolium bromide (MTT) assay was performed, and the optical density of the samples was measured at 540 nm.

PsCA1 = PsCA1 (Pseudomonas aeruginosa, UniProt Q9I730); test: biochemical; conditions: stopped-flow CO2 hydrase assay, mean from 3 assays
Method: as §1, §2

PsCA3 = target: T3, PsCA3 (Pseudomonas aeruginosa, UniProt Q9HVB9); test: biochemical; conditions: stopped-flow CO2 hydrase assay, mean from 3 assays
T3 construct: made in house
T3 sequence (Q9HVB9 1-215): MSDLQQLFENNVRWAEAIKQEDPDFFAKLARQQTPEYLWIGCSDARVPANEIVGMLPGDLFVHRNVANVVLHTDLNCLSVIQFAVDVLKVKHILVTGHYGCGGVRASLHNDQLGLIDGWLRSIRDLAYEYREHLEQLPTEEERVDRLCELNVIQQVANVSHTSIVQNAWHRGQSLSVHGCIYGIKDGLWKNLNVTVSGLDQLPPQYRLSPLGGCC
Method: as §1, §2

hCA I = target: T4, hCA I (Homo sapiens, UniProt P00915); test: stopped-flow CO2 hydrase assay, hCA I; assay type: biochemical; conditions: for Ki: stopped-flow CO2 hydrase assay, pH 7.4, mean from 3 assays; for selectivity for all assayed bacterial isoforms: bacterial CA isoforms versus the human off-target hCA I and II
T4 construct: made in house
Method: as §1, §2

[3] = bacteriostatic or bactericidal effect, tested up to 8 × MIC
[4] = light or radiation study, clinical isolate, without irradiation, read-out: MIC E. faecalis
[5] = span over the four compounds and both strains, read-out: MIC against the E. faecalis and S. aureus strains
[6] = clinical isolate, without irradiation

T1 sequence (P61517 whole entry): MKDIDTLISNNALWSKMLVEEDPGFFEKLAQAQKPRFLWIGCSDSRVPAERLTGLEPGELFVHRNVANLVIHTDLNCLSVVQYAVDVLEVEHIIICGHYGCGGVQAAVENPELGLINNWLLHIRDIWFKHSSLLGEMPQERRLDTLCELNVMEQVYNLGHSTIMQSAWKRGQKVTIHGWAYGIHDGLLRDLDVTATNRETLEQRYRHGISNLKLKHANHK
Chain of PsCA1 (Q9I730 entry or part of it): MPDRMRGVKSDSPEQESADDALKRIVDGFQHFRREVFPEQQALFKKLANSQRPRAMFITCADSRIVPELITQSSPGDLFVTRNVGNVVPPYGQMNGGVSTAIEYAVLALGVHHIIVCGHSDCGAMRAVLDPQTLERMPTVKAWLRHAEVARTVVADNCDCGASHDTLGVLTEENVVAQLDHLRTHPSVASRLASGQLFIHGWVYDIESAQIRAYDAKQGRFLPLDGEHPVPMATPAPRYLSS
T4 sequence (P00915 whole entry, canonical isoform): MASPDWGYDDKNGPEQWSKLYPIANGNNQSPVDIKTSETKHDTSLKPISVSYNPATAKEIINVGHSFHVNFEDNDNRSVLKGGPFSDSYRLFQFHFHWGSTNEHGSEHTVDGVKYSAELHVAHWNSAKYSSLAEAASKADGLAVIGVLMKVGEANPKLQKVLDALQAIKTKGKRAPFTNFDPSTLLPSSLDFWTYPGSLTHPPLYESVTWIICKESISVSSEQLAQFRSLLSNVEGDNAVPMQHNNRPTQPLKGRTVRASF
Chain of E. coli γ (P0A9W9 whole entry): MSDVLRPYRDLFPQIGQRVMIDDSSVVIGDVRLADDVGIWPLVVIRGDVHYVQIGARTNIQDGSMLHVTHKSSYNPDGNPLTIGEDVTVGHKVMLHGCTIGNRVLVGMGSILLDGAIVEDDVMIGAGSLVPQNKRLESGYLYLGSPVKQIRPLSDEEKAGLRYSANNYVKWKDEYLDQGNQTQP

Structure (SMILES)	Ki (E. coli β) [nM]	hemolysis activity, cytotoxicity to human red blood cells (human red blood cells)	Ki (hCA II) [nM]	MIC (S. aureus) [µg/mL]	MBC S. aureus (S. aureus)	Growth Reduction (S. epidermidis [1]) [log reduction]	MIC (S. epidermidis [2]) [µg/mL]	MBC S. epidermidis (S. epidermidis [2]; Table 3)	MBC S. epidermidis (S. epidermidis [2]; [3])	Ki (E. coli γ) [nM]	MIC (E. faecalis; [4]) [µg/mL]	MIC (E. faecalis; [5]) [µg/mL]	MBC E. faecalis (E. faecalis)	IC50 (MRC-5 cells) [µg/mL]	Ki (PsCA1) [nM]	Ki (PsCA3) [nM]	Ki (hCA I) [nM]	selectivity for all assayed bacterial isoforms (hCA I) [fold]	MIC S. aureus (S. aureus)	MIC S. epidermidis (S. epidermidis [2])	other results
CCCN1C(=CC=C2CCCC(C=CC3=[N+](CCC)c4ccccc4C3(C)C)=C2NCCc2ccc(S(N)(=O)=O)cc2)C(C)(C)c2ccccc21 [Compound 2a]	54.8	not cytotoxic	163	8 to 32	bacteriostatic	1	4 to 16	bactericidal	bactericidal	120	16 to 64	8 to 128	bactericidal	38.5	60.4	89.4	410	–	–	–	fold less toxic than 2e (MRC-5 cells; MRC-5 IC50 compared with 2e): 19 fold
CCCN1C(=CC=C2CCCC(C=CC3=[N+](CCC)c4ccccc4C3(C)C)=C2NCCNC(=O)Nc2ccc(S(N)(=O)=O)cc2)C(C)(C)c2ccccc21 [Compound 2b]	69.4	significant cytotoxicity	588	8 to 32	bacteriostatic	2	4 to 16	bacteriostatic	bacteriostatic	93.5	16 to 64	8 to 128	bacteriostatic	82.2	46.9	48.1	957	~10	–	–	concentration above which cytotoxic to human red blood cells (human red blood cells; hemolysis assay): > 75 µg/mL
CC1(C)C(/C=C/C2=C(NCCc3ccc(S(N)(=O)=O)cc3)C(=C/C=C3\N(CCCCS(=O)(=O)O)c4ccc5ccccc5c4C3(C)C)/CCC2)=[N+](CCCCS(=O)(=O)[O-])c2ccc3ccccc3c21 [Compound 2c]	60.2	significant cytotoxicity	91	> 256	> 256 µg/mL	1	> 256	> 256 µg/mL	> 256 µg/mL	117	> 256	–	> 256 µg/mL	> 256	64.8	76.8	529	–	over 256 µg/mL	over 256 µg/mL	MIC E. faecalis (E. faecalis; [6]): over 256 µg/mL
CC1(C)C(/C=C/C2=C(NCCNC(=O)Nc3ccc(S(N)(=O)=O)cc3)C(=C/C=C3\N(CCCCS(=O)(=O)O)c4ccc5ccccc5c4C3(C)C)/CCC2)=[N+](CCCCS(=O)(=O)[O-])c2ccc3ccccc3c21 [Compound 2d]	69.8	significant cytotoxicity	183	> 256	> 256 µg/mL	1	> 256	> 256 µg/mL	> 256 µg/mL	111	> 256	–	> 256 µg/mL	> 256	88.7	81	923	–	over 256 µg/mL	over 256 µg/mL	MIC E. faecalis (E. faecalis; [6]): over 256 µg/mL
CN1C(=CC=C2CCCC(C=CC3=[N+](C)c4ccc5ccccc5c4C3(C)C)=C2NCCc2ccc(S(N)(=O)=O)cc2)C(C)(C)c2c1ccc1ccccc21 [Compound 2e]	74.1	not cytotoxic	160	8 to 32	bactericidal	–	1 to 4	bactericidal	bactericidal	110	16 to 64	8 to 128	bactericidal	2	71.1	77.7	861	–	–	–	–
CN1C(=CC=C2CCCC(C=CC3=[N+](C)c4ccc5ccccc5c4C3(C)C)=C2NCCNC(=O)Nc2ccc(S(N)(=O)=O)cc2)C(C)(C)c2c1ccc1ccccc21 [Compound 2f]	64.9	not cytotoxic	625	16 to 64	bacteriostatic	1	2 to 8	bacteriostatic	bacteriostatic	124	32 to 128	8 to 128	bactericidal	78.8	58.3	94.5	3900	~10	–	–	selectivity index (SI) against S. epidermidis (S. epidermidis [2]; ratio between cytotoxicity in μg/mL and the MIC value in μg/mL): highest SI
